Assay results taken from US20250171438A1 (Agios Pharmaceuticals, Inc., priority 2022, published 2025).

Molecular target: T1, human PAH with the R408W mutation (Homo sapiens, UniProt P00439, R408W)
T1 construct: expressed in transfected cells
T1 sequence (P00439 1-452 R408W): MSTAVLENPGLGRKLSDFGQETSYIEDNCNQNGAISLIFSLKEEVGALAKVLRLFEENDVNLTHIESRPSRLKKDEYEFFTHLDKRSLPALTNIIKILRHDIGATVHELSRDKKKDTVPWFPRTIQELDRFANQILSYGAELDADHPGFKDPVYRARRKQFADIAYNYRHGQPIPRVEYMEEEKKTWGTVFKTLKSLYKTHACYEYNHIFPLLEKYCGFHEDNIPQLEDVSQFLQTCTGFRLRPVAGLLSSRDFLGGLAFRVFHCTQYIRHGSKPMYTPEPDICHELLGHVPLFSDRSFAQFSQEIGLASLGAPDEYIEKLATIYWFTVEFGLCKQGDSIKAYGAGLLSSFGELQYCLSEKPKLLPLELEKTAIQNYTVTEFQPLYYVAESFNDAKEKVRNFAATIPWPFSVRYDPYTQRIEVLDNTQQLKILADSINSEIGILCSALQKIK
Assay: Cell Based Phenylalanine Flux Assay
Conditions: A375 cells expressing human R408W PAH; 24 hrs compound incubation; 13C-Tyrosine by LC-MS; average where tested multiple times; read-out: AC50

AC50 [µM]	Compound
1 to 5	O=C(c1oc(-c2ccccn2)nc1C1CC1)N1CCc2[nH]cnc2[C@@H]1c1nc2c(F)cccc2s1 [Example 1536, (R)-(4-cyclopropyl-2-(pyridin-2-yl)oxazol-5-yl)(4-(4-fluorobenzo[d]thiazol-2-yl)-6,7-dihydro-1H-imidazo[4,5-c]pyridin-5(4H)-yl)methanone]
< 0.5	CC(C)(O)c1nc(C2CC2)c(C(=O)N2CCc3[nH]cnc3[C@H]2c2nc3c(F)cccc3s2)o1 [Example 1537, (S)-(4-cyclopropyl-2-(2-hydroxypropan-2-yl)oxazol-5-yl)(4-(4-fluorobenzo[d]thiazol-2-yl)-6,7-dihydro-1H-imidazo[4,5-c]pyridin-5(4H)-yl)methanone]
1 to 5	CC(C)(O)c1nc(C2CC2)c(C(=O)N2CCc3[nH]cnc3[C@@H]2c2nc3c(F)cccc3s2)o1 [Example 1538, (R)-(4-cyclopropyl-2-(2-hydroxypropan-2-yl)oxazol-5-yl)(4-(4-fluorobenzo[d]thiazol-2-yl)-6,7-dihydro-1H-imidazo[4,5-c]pyridin-5(4H)-yl)methanone]
< 0.5	O=C(c1ocnc1C(F)F)N1CCc2[nH]cnc2[C@H]1c1nc2ccccc2s1 [Example 1539]
< 0.5	O=C(c1ocnc1C(F)F)N1CCc2[nH]cnc2[C@@H]1c1nc2ccccc2s1 [Example 1540, (R)-(4-(benzo[d]thiazol-2-yl)-6,7-dihydro-1H-imidazo[4,5-c]pyridin-5(4H)-yl)(4-(difluoromethyl)oxazol-5-yl)methanone]
< 0.5	CC(C)(O)c1nc(C(F)(F)F)c(C(=O)N2CCc3[nH]cnc3[C@H]2c2nc3c(F)cccc3s2)o1 [Example 1541, (S)-(4-(4-fluorobenzo[d]thiazol-2-yl)-6,7-dihydro-1H-imidazo[4,5-c]pyridin-5(4H)-yl)(2-(2-hydroxypropan-2-yl)-4-(trifluoromethyl)oxazol-5-yl)methanone]
< 0.5	CC(C)(O)c1nc(C(F)(F)F)c(C(=O)N2CCc3[nH]cnc3[C@@H]2c2nc3c(F)cccc3s2)o1 [Example 1542, (R)-(4-(4-fluorobenzo[d]thiazol-2-yl)-6,7-dihydro-1H-imidazo[4,5-c]pyridin-5(4H)-yl)(2-(2-hydroxypropan-2-yl)-4-(trifluoromethyl)oxazol-5-yl)methanone]
< 0.5	CC(C)(O)c1nc(C2CC2)c(C(=O)N2CCc3[nH]cnc3[C@H]2c2nc3ccccc3s2)o1 [Example 1543]
1 to 5	CC(C)(O)c1nc(C2CC2)c(C(=O)N2CCc3[nH]cnc3[C@@H]2c2nc3ccccc3s2)o1 [Example 1544, (R)-(4-(benzo[d]thiazol-2-yl)-6,7-dihydro-1H-imidazo[4,5-c]pyridin-5(4H)-yl)(4-cyclopropyl-2-(2-hydroxypropan-2-yl)oxazol-5-yl)methanone]
> 5	Cc1ncoc1C(=O)N1C[C@H](C)c2[nH]cnc2[C@@H]1c1nc2ccccc2s1 [Example 1545, ((4R,7S)-4-(benzo[d]thiazol-2-yl)-7-methyl-1,4,6,7-tetrahydro-5H-imidazo[4,5-c]pyridin-5-yl)(4-methyloxazol-5-yl)methanone]
0.5 to 1	Cc1ncoc1C(=O)N1C[C@H](C)c2[nH]cnc2[C@H]1c1nc2ccccc2s1 [Example 1546, ((4S,7S)-4-(benzo[d]thiazol-2-yl)-7-methyl-1,4,6,7-tetrahydro-5H-imidazo[4,5-c]pyridin-5-yl)(4-methyloxazol-5-yl)methanone]
1 to 5	Cc1ncoc1C(=O)N1C[C@@H](C)c2[nH]cnc2[C@H]1c1nc2ccccc2s1 [Example 1547, ((4S,7R)-4-(benzo[d]thiazol-2-yl)-7-methyl-6,7-dihydro-1H-imidazo[4,5-c]pyridin-5(4H)-yl)(4-methyloxazol-5-yl)methanone]
> 5	Cc1ncoc1C(=O)N1C[C@@H](C)c2[nH]cnc2[C@@H]1c1nc2ccccc2s1 [Example 1548, ((4R,7R)-4-(benzo[d]thiazol-2-yl)-7-methyl-6,7-dihydro-1H-imidazo[4,5-c]pyridin-5(4H)-yl)(4-methyloxazol-5-yl)methanone]
< 0.5	Cc1cc(C2(C(=O)N3CCc4[nH]cnc4[C@H]3c3nc4ccccc4s3)CC2)on1 [Example 1549]
1 to 5	Cc1cc(C2(C(=O)N3CCc4[nH]cnc4[C@@H]3c3nc4ccccc4s3)CC2)on1 [Example 1550, (R)-(4-(benzo[d]thiazol-2-yl)-6,7-dihydro-1H-imidazo[4,5-c]pyridin-5(4H)-yl)(1-(3-methylisoxazol-5-yl)cyclopropyl)methanone]
0.5 to 1	C[C@@H]1CN(C(=O)c2ocnc2C2CC2)[C@H](c2nc3c(F)cccc3s2)c2nc[nH]c21 [Example 1551, (4-cyclopropyloxazol-5-yl)((4S,7R)-4-(4-fluorobenzo[d]thiazol-2-yl)-7-methyl-6,7-dihydro-1H-imidazo[4,5-c]pyridin-5(4H)-yl)methanone]
1 to 5	C[C@@H]1CN(C(=O)c2ocnc2C2CC2)[C@@H](c2nc3c(F)cccc3s2)c2nc[nH]c21 [Example 1552, (4-cyclopropyloxazol-5-yl)((4R,7R)-4-(4-fluorobenzo[d]thiazol-2-yl)-7-methyl-6,7-dihydro-1H-imidazo[4,5-c]pyridin-5(4H)-yl)methanone]
< 0.5	CC(C)(O)c1nc(C(F)(F)F)c(C(=O)N2CCc3[nH]cnc3[C@H]2c2nc3ccccc3s2)o1 [Example 1553]
< 0.5	CC(C)(O)c1nc(C(F)(F)F)c(C(=O)N2CCc3[nH]cnc3[C@@H]2c2nc3ccccc3s2)o1 [Example 1554, (R)-(4-(benzo[d]thiazol-2-yl)-6,7-dihydro-1H-imidazo[4,5-c]pyridin-5(4H)-yl)(2-(2-hydroxypropan-2-yl)-4-(trifluoromethyl)oxazol-5-yl)methanone]
1 to 5	Cn1cc(C(F)(F)C(=O)N2CCc3[nH]cnc3[C@H]2c2nc3ccccc3s2)cn1 [Example 1555]
1 to 5	Cn1cc(C(F)(F)C(=O)N2CCc3[nH]cnc3[C@@H]2c2nc3ccccc3s2)cn1 [Example 1556, (R)-1-(4-(benzo[d]thiazol-2-yl)-6,7-dihydro-1H-imidazo[4,5-c]pyridin-5(4H)-yl)-2,2-difluoro-2-(1-methyl-1H-pyrazol-4-yl)ethanone]
0.5 to 1	O=C(c1oc(-c2ccccn2)nc1C1CC1)N1CCc2[nH]cnc2[C@@H]1c1nc2cccc(F)c2s1 [Example 1557, (R)-(4-cyclopropyl-2-(pyridin-2-yl)oxazol-5-yl)(4-(7-fluorobenzo[d]thiazol-2-yl)-6,7-dihydro-1H-imidazo[4,5-c]pyridin-5(4H)-yl)methanone]
< 0.5	O=C(c1oc(-c2ccccn2)nc1C1CC1)N1CCc2[nH]cnc2[C@H]1c1nc2cccc(F)c2s1 [Example 1558]
< 0.5	O=C(c1oc(NC2CC2)nc1C(F)(F)F)N1CCc2[nH]cnc2[C@H]1c1nc2ccccc2s1 [Example 1559]
< 0.5	O=C(c1oc(NC2CC2)nc1C(F)(F)F)N1CCc2[nH]cnc2[C@@H]1c1nc2ccccc2s1 [Example 1560, (R)-(4-(benzo[d]thiazol-2-yl)-6,7-dihydro-1H-imidazo[4,5-c]pyridin-5(4H)-yl)(2-(cyclopropylamino)-4-(trifluoromethyl)oxazol-5-yl)methanone]
< 0.5	O=C(c1oc(C2(O)CCC2)nc1C(F)(F)F)N1CCc2[nH]cnc2[C@H]1c1nc2ccccc2s1 [Example 1565]
